Active and inactive are the calls of the source. The rule behind the calls is not given here.
What was measured:
[1] = Cytotoxicity against human HepG2 cells assessed as combination index at ED75 using 1:1 compound to formosanin C incubated for 24 hrs by MTT assay; type: functional
[2] = Cytotoxicity against human HepG2 cells assessed as combination index at ED30 using 1:1 compound to formosanin C incubated for 24 hrs by MTT assay; type: functional
HepG2 [3] = assay: Induction of nuclear fragmentation in human HepG2 cells at 0.5 uM after 24 hrs by Hoechst 33258 staining-based fluorescence microscopic analysis in presence of formosanin C; type: functional, cell-based
HepG2 [4] = assay: Induction of apoptosis in human HepG2 cells assessed as downregulation of Bcl2 mRNA level at 1 uM incubated for 24 hrs by RT-PCR analysis in presence of formosanin C; type: functional, cell-based
HepG2 [5] = assay: Induction of nuclear fragmentation in human HepG2 cells at 1 uM after 24 hrs by Hoechst 33258 staining-based fluorescence microscopic analysis; type: functional, cell-based
[6] = Induction of apoptosis in human HepG2 cells assessed as upregulation of caspase3 level at 1 uM incubated for 24 hrs by Western blot analysis in presence of formosanin C; type: functional, cell-based
HepG2 [7] = assay: Induction of Bax translocation from cytosol to mitochondria in human HepG2 cells by Western blot analysis in presence of FC; type: functional, cell-based
HepG2 [8] = assay: Increase in cyclin E mRNA level in human HepG2 cells at 1 uM incubated for 24 hrs by RT-PCR analysis in presence of formosanin C relative to polyphyllin I alone treatment; type: functional, cell-based
[9] = Cytotoxicity against human Bel7402 cells assessed as combination index at ED50 using 1:1 compound to formosanin C incubated for 24 hrs by MTT assay; type: functional, Bel-7402
HepG2 [10] = assay: Induction of cytochrome c release in human HepG2 cells by Western blot analysis in presence of FC; type: functional, cell-based
HepG2 [11] = assay: Increase in p21 mRNA level in human HepG2 cells at 1 uM incubated for 24 hrs by RT-PCR analysis in presence of formosanin C relative to polyphyllin I alone treatment; type: functional, cell-based
[12] = Induction of apoptosis in human HepG2 cells assessed as upregulation of Bax mRNA level at 1 uM incubated for 24 hrs by RT-PCR analysis in presence of formosanin C; type: functional, cell-based
HepG2 [13] = assay: Decrease in CDK2 level in human HepG2 cells at 1 uM incubated for 24 hrs by Western blot analysis in presence of FC; type: functional, cell-based
[14] = Suppression of MMP9 expression in human HepG2 cells assessed as reduction in enzyme activity at 1 uM after 24 hrs by zymographic analysis in presence of FC; type: functional, cell-based
[15] = Suppression of MMP9 expression in human HepG2 cells at 1 uM after 24 hrs by Western blot analysis in presence of FC; type: functional, cell-based
[16] = Induction of apoptosis in human HepG2 cells assessed as upregulation of Bax level at 1 uM incubated for 24 hrs by Western blot analysis in presence of formosanin C; type: functional, cell-based
HepG2 [17] = assay: Antimigratory activity in human HepG2 cells at 1 uM after 24 hrs by wound healing assay in presence of FC; type: functional, cell-based
[18] = Induction of apoptosis in human HepG2 cells assessed as upregulation of p53 level at 1 uM incubated for 24 hrs by Western blot analysis in presence of formosanin C; type: functional, cell-based
[19] = Cytotoxicity against human HepG2 cells assessed as combination index at ED90 using 1:1 compound to formosanin C incubated for 24 hrs by MTT assay; type: functional
HepG2 [20] = assay: Induction mitochondrial membrane potential changes in human HepG2 cells at 1 uM after 24 hrs by rhodamine 123 staining-based flow cytometry (reference value: 23.8+/-2.3%); type: functional
HepG2 [21] = assay: Induction of chromatin compaction in human HepG2 cells at 0.5 uM after 24 hrs by Hoechst 33258 staining-based fluorescence microscopic analysis in presence of formosanin C; type: functional, cell-based
HepG2 [22] = assay: Decrease in CDK2 level in human HepG2 cells at 1 uM incubated for 24 hrs by Western blot analysis in presence of formosanin C relative to relative to polyphyllin I alone treatment; type: functional, cell-based
[23] = Cytotoxicity against human HepG2 cells after 24 hrs by MTT assay; type: functional, cell-based; settings: HepG2, 24 h
HepG2 [24] = assay: Increase in p21 level in human HepG2 cells at 1 uM incubated for 24 hrs by Western blot analysis in presence of FC; type: functional, cell-based
[25] = Cytotoxicity against human Bel7402 cells assessed as combination index at ED75 using 1:1 compound to formosanin C incubated for 24 hrs by MTT assay; type: functional, Bel-7402
HepG2 [26] = assay: Induction of chromatin compaction in human HepG2 cells at 1 uM after 24 hrs by Hoechst 33258 staining-based fluorescence microscopic analysis; type: functional, cell-based
[27] = Cell cycle arrest in human HepG2 cells assessed as accumulation at G2 phase at 1 uM after 24 hrs by propidium iodide staining-based flow cytometry in presence of formosanin C (reference value: 2.04%); type: functional
HepG2 [28] = assay: Induction of apoptosis in human HepG2 cells at 1 uM after 24 hrs by propidium iodide staining-based flow cytometry(reference value: 3.01%); type: functional
[29] = Cell cycle arrest in human HepG2 cells assessed as accumulation at G1 phase at 1 uM after 24 hrs by propidium iodide staining-based flow cytometry(reference value: 55.62%); type: functional
HepG2 [30] = assay: Induction of apoptosis in human HepG2 cells assessed as downregulation of NF-kappaB […] level at 1 uM incubated for 24 hrs by RT-PCR analysis in presence of formosanin C; type: functional, cell-based
[31] = Cell cycle arrest in human HepG2 cells assessed as accumulation at G2 phase at 1 uM after 24 hrs by propidium iodide staining-based flow cytometry(reference value: 2.04%); type: functional
HepG2 [32] = assay: Induction mitochondrial membrane potential changes in human HepG2 cells at 1 uM after 24 hrs by rhodamine 123 staining-based flow cytometry in presence of formosanin C (reference value: 23.8+/-2.3%); type: functional
[33] = Cytotoxicity against human Bel7402 cells assessed as combination index at ED90 using 1:1 compound to formosanin C incubated for 24 hrs by MTT assay; type: functional, Bel-7402
[34] = Cell cycle arrest in human HepG2 cells assessed as accumulation at G1 phase at 1 uM after 24 hrs by propidium iodide staining-based flow cytometry in presence of formosanin C (reference value: 55.62%); type: functional
[35] = Cell cycle arrest in human HepG2 cells assessed as accumulation at S phase at 1 uM after 24 hrs by propidium iodide staining-based flow cytometry in presence of formosanin C (reference value: 42.33%); type: functional
[36] = Cytotoxicity against human Bel7402 cells after 24 hrs by MTT assay; type: functional, cell-based; settings: Bel-7402, 24 h
[37] = Cytotoxicity against human Bel7402 cells assessed as combination index at ED30 using 1:1 compound to formosanin C incubated for 24 hrs by MTT assay; type: functional, Bel-7402
HepG2 [38] = assay: Change in PCNA mRNA level in human HepG2 cells at 1 uM incubated for 24 hrs by RT-PCR analysis in presence of formosanin C relative to polyphyllin I alone treatment; type: functional, cell-based
HepG2 [39] = assay: Induction of apoptosis in human HepG2 cells at 1 uM after 24 hrs by propidium iodide staining-based flow cytometry in presence of formosanin C (reference value: 3.01%); type: functional
[40] = Cell cycle arrest in human HepG2 cells assessed as accumulation at S phase at 1 uM after 24 hrs by propidium iodide staining-based flow cytometry(reference value: 42.33%); type: functional
[41] = Cytotoxicity against human HepG2 cells assessed as combination index at ED50 using 1:1 compound to formosanin C incubated for 24 hrs by MTT assay; type: functional
[42] = Induction of apoptosis in human HepG2 cells assessed as upregulation of caspase3 mRNA level at 1 uM incubated for 24 hrs by RT-PCR analysis in presence of formosanin C; type: functional, cell-based
[43] = Induction of apoptosis in human HepG2 cells assessed as upregulation of p53 mRNA level at 1 uM incubated for 24 hrs by RT-PCR analysis in presence of formosanin C; type: functional, cell-based
HepG2 [44] = assay: Induction of cytochrome c release in human HepG2 cells by Western blot analysis; type: functional, cell-based
HepG2 [45] = assay: Induction of Bax translocation from cytosol to mitochondria in human HepG2 cells by Western blot analysis; type: functional, cell-based
HepG2 [46] = assay: Decrease in cyclin E level in human HepG2 cells at 1 uM incubated for 24 hrs Western blot analysis in presence of FC; type: functional, cell-based
HepG2 [47] = assay: Change in PCNA mRNA level in human HepG2 cells at 1 uM incubated for 24 hrs by RT-PCR analysis in presence of formosanin C relative to formosanin C treatment; type: functional, cell-based

Compound: C[C@@H]1CC[C@@]2(OC1)O[C@H]1C[C@H]3[C@@H]4CC=C5C[C@@H](O[C@@H]6O[C@H](CO)[C@@H](O[C@@H]7O[C@@H](CO)[C@H](O)[C@H]7O)[C@H](O)[C@H]6O[C@@H]6O[C@@H](C)[C@H](O)[C@@H](O)[C@H]6O)CC[C@]5(C)[C@H]4CC[C@]3(C)[C@H]1[C@@H]2C
- CI [1]: 0.56
- CI [2]: 0.62
- Activity (HepG2 [3]): Active
- Activity (HepG2 [4]): Active
- Activity (HepG2 [5]): Active
- Activity [6]: Active
- Activity (HepG2 [7]): Active
- Activity (HepG2 [8]): Active
- CI [9]: 0.58
- Activity (HepG2 [10]): Active
- Activity (HepG2 [11]): Active
- Activity [12]: Active
- Activity (HepG2 [13]): Active
- Activity [14]: Active
- Activity [15]: Active
- Activity [16]: Active
- Activity (HepG2 [17]): Active
- Activity [18]: Active
- CI [19]: 0.54
- Activity (HepG2 [20]): 27.9%
- Activity (HepG2 [21]): Active
- Activity (HepG2 [22]): Active
- IC50 [23]: 4.01 µM
- Activity (HepG2 [24]): Active
- CI [25]: 0.52
- Activity (HepG2 [26]): Active
- Activity [27]: 2.63%
- Activity (HepG2 [28]): 5.28%
- Activity [29]: 59.5%
- Activity (HepG2 [30]): Active
- Activity [31]: 2.15%
- Activity (HepG2 [32]): 40.6%
- CI [33]: 0.46
- Activity [34]: 68.7%
- Activity [35]: 28.7%
- IC50 [36]: 4.74 µM
- CI [37]: 0.67
- Activity (HepG2 [38]): Active
- Activity (HepG2 [39]): 7.52%
- Activity [40]: 38.4%
- CI [41]: 0.58
- Activity [42]: Active
- Activity [43]: Active
- Activity (HepG2 [44]): Active
- Activity (HepG2 [45]): Active
- Activity (HepG2 [46]): Active
- Activity (HepG2 [47]): Active
